In one assay the target is T1, mGluR5 receptor (human) (Homo sapiens, UniProt P41594).
T1 construct: host or cells: CHO
Put plainly: Functional Ca2+ influx assay in CHO-hmGluR5 cells (DHPG 10 μM, FLIPR). It is filed as cell-based. As for the experimental part:
V. Functional Ca^2+ Influx Assay
20,000 CHO-hmGluR5 cells/well (Euroscreen, Gosselies, Belgium) are pipetted into 96-well plates (BD Biosciences, Heidelberg, Germany, Ref. 356640, clear bottom, 96-well, poly-D-lysine) and incubated overnight in HBSS buffer (Gibco 14025-050) with the following additions: 10% FCS (GIBCO, 10270-106) and doxycycline (BD Biosciences Clontech 631311 600 ng/ml).
For the functional study the cells were charged with 2 μM of Fluo-4 and 0.01% by vol. pluronic F127 (Molecular Probes Europe BV, Leiden, The Netherlands) in HBSS buffer (Hank's buffered saline solution, Gibco Invitrogen GmbH, Karlsruhe, Germany) with probenicide (Sigma P8761, […]) for 30 min. at 37° C.
The cells are then washed 3 times with washing buffer (HBSS buffer, Gibco No. 14025-050), with probenicide (Sigma P8761, 0.69 mg/ml) and then taken up with the same buffer ad 100 μl. After 15 min. the plates for determining the Ca^2+ measurements in the presence of DHPG ((S)-3,5-dihydroxyphenylglycine, Tocris Biotrend Chemikalien GmbH, Cologne, Germany, final DHPG concentration: 10 μM) and also in the presence or absence of test substances are transferred into a fluorometric imaging plate reader (FLIPR, Molecular Devices, Sunnyvale, Calif.).
The Ca^2+-dependent fluorescence is measured before and after the addition of test substances. The quantification occurs through the measurement of the highest fluorescence intensity over time. After the fluorescence base line has been recorded for 10 sec. 50 μl of test substance solution (different test substance concentrations in HBSS buffer with 1% DMSO and 0.02% Tween 20, Sigma) are added and the fluorescence signal is measured for 6 min. 50 μl of DHPG solution ((S)-3,5-dihydroxyphenylglycine, Tocris Biotrend Chemikalien GmbH, Cologne, Germany, final DHPG concentration: 10 μM) are then added and the influx of Ca^2+ is measured simultaneously for 60 sec. The final DMSO concentration amounts to 0.25% and the final Tween 20 content amounts to 0.005%. The data are analysed with Microsoft Excel and GraphPad Prism. The dose effect curves are calculated with non-linear regression and IC50 values determined. Each data point is determined 3 times and IC50 values are averaged from a minimum of 2 independent measurements. Ki values are calculated according to the following formula:
Ki=IC50/(1+(AGconc./EC50)).
AGconc.=10 μM; EC50 corresponds to the DHPG concentration necessary for the half-maximum influx of Ca^2+.

A further assay deals with T2, mGluR5 receptor (Sus scrofa, UniProt I3LUI7).
T2 construct: 450 μg of protein from brain homogenate with 5 nM ^3[H]-MPEP; from tissue; host or cells: pig brain halves without medulla, cerebellum and pons
Put plainly: [3H]-MPEP mGluR5 receptor binding assay (pig brain homogenate). Particulars: 5 nM [3H]-MPEP; for pIC50: read-out: IC50 mGluR5 Receptor (pig) [^3H]-MPEP Bond; for inhibition at 10 µM: 10 μM compound, read-out: % Inhibition of mGluR5 Receptor (pig) [^3H]-MPEP Bond at 10 μM. The gist of the method:
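Compounds at 10 μM competed with 5 nM [3H]-MPEP for binding to pig brain membranes (450 μg protein) for 60 min at room temperature in pH 8.0 Hepes buffer. Bound radioactivity was collected on glass-fibre filters and read by β-counting, with 10 μM unlabelled MPEP giving non-specific binding.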

pIC50, pKi: −log10 of the molar value. Counter-ions that a name gives are not always drawn.

Ki, IC50 and inhibition data for 29 molecules are collected here from patent US20090069320A1, “Substituted 4-Amino-Quinazoline Compounds with Metabotropic Glutamate Receptor Regulating Activity and Uses Thereof” (Gruenenthal GmbH, priority 2006, published 2009).

As a reminder, the pKi is −log10 of the Ki, conventionally taken in molar units. Lower therefore signals a large Ki. Broadly, the pIC50 is the IC50 on a negative log10 scale, so that one unit is a factor of ten. In general, inhibition refers to the change of the read-out against control, counted positive when it falls.

T1 sequence (P41594 21-1212): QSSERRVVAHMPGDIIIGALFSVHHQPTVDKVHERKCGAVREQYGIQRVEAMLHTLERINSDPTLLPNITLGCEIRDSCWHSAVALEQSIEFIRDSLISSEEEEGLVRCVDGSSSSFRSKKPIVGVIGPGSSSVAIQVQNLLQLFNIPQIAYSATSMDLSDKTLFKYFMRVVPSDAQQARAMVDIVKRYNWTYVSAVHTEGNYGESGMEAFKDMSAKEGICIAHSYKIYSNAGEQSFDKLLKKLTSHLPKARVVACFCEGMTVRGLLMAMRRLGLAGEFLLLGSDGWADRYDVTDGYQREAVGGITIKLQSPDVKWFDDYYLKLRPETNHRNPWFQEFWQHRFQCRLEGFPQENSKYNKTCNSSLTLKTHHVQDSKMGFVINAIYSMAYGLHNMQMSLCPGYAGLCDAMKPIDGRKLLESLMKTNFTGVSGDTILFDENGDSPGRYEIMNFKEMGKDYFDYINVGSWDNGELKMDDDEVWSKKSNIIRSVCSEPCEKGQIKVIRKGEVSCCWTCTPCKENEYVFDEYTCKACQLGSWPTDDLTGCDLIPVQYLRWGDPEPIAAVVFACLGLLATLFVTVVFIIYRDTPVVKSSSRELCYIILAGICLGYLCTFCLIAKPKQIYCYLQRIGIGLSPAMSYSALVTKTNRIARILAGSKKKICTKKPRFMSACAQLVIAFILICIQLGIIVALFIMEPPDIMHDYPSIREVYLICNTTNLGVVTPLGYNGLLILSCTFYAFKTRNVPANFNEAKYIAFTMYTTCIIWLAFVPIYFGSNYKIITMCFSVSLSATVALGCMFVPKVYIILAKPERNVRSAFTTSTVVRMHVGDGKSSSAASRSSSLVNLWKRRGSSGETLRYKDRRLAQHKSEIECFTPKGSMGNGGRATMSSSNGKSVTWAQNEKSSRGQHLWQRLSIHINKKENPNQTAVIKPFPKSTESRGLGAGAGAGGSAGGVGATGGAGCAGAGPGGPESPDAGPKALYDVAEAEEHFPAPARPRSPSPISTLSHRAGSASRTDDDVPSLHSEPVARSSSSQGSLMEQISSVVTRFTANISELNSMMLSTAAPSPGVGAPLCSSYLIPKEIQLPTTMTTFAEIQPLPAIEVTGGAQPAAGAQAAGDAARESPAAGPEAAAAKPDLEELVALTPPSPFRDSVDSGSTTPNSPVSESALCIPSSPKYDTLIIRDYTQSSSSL
T2 sequence (I3LUI7 19-1212): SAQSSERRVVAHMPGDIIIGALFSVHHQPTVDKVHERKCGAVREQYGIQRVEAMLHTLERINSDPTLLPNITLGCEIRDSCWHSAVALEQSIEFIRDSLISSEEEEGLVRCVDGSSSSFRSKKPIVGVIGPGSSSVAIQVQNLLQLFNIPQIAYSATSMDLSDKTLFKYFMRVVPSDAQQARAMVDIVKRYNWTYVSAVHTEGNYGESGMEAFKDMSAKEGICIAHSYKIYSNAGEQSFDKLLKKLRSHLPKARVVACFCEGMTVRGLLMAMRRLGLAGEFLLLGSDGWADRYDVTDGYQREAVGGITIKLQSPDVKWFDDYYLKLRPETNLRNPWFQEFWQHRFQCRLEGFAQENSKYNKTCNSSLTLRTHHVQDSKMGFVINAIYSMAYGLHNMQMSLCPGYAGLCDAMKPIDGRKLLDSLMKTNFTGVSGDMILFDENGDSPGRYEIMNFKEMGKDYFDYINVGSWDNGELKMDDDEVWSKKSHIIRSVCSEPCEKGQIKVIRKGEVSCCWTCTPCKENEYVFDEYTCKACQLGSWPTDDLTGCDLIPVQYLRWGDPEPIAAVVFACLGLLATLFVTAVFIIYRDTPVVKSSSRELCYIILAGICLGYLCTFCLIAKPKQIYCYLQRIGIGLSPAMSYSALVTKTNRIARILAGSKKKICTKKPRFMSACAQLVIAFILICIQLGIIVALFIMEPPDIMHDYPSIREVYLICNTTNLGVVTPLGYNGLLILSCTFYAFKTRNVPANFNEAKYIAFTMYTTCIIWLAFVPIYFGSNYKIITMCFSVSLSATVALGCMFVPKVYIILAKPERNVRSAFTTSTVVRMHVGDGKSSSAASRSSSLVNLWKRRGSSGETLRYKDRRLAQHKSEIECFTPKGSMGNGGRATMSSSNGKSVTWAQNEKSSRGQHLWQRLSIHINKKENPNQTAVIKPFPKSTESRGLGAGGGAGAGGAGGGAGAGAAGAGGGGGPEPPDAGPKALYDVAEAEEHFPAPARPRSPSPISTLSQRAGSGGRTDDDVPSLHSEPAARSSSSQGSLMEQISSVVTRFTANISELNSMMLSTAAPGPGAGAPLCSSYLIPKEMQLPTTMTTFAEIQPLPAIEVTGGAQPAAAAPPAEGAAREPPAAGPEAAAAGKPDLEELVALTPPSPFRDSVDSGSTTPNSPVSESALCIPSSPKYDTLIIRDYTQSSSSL

On mGluR5 receptor (human), `O=C(c1ccccc1)N(Cc1cccc(-c2ccc3ncnc(N4CCCC4)c3c2)c1)C1CC1` [Example 121, N-cyclopropyl-N-[3-(4-pyrrolidin-1-yl-quinazolin-6-yl)-benzyl]-benzamide] gave a pKi of 8.12.

Turning to `CC(C)(C)Nc1ncnc2ccc(-c3cccc(CN4C(=O)CCC4=O)c3)cc12` [Example 196, 1-[3-(4-tert-butylamino-quinazolin-6-yl)-benzyl]-pyrrolidine-2,5-dione hydrochloride], the pIC50 on mGluR5 receptor was 7.05. For the same molecule, on mGluR5 receptor (human), the pKi is 8.33.

Consider `CC(=O)N(Cc1cccc(-c2ccc3ncnc(NC4CC4)c3c2)c1)C(C)(C)C` [Example 202, N-tert-butyl-N-[3-(4-cyclopropylamino-quinazolin-6-yl)-benzyl]-acetamide], for which the inhibition at 10 µM at mGluR5 receptor was determined as 55%. Further, the pKi at mGluR5 receptor (human) was 8.48.

Consider `N#CCC(=O)N(Cc1cccc(-c2ccc3ncnc(NC4CC4)c3c2)c1)C1CC1` [Example 211, 2-cyano-N-cyclopropyl-N-[3-(4-cyclopropylamino-quinazolin-6-yl)-benzyl]-acetamide], for which the pIC50 at mGluR5 receptor is 7.15. The molecule also showed a pKi on mGluR5 receptor (human) of 8.08.

As to `CC1CC(=O)N(Cc2cccc(-c3ccc4ncnc(NC5CC5)c4c3)c2)C1=O` (centres unmarked) [Example 245, 1-[3-(4-cyclopropylamino-quinazolin-6-yl)-benzyl]-3-methyl-pyrrolidine-2,5-dione], on mGluR5 receptor, the pIC50 is 6.85. Besides, the pKi at mGluR5 receptor (human) is 8.28.

With `COc1ccc(CN(C2CC2)S(C)(=O)=O)cc1-c1ccc2ncnc(NC3CC3)c2c1` [Example 250, N-cyclopropyl-N-(3-(4-(cyclopropylamino)quinazolin-6-yl)-4-methoxybenzyl)methane sulfonamide], the pIC50 on mGluR5 receptor is 6.92. Also, the pKi at mGluR5 receptor (human) is 8.30.

For the molecule `O=C1CCC(=O)N1Cc1cccc(-c2ccc3ncnc(NC4CC4)c3c2)c1` [Example 258, 1-[3-(4-cyclopropylamino-quinazolin-6-yl)-benzyl]-pyrrolidine-2,5-dione], on mGluR5 receptor, the negative-log IC50 (pIC50) was 7.30. The pKi on mGluR5 receptor (human) is 8.41.

Turning to `COc1ccc(CN(C(C)=O)C2CC2)cc1-c1ccc2ncnc(NC3CC3)c2c1` [Example 261, N-cyclopropyl-N-[3-(4-cyclopropylamino-quinazolin-6-yl)-4-methoxy-benzyl]-acetamide], at mGluR5 receptor, the pIC50 was 6.70. Also, the pKi at mGluR5 receptor (human) is 7.41.

For the molecule `CC(=O)N(Cc1cc(-c2ccc3ncnc(NC4CC4)c3c2)cs1)C1CC1` [Example 262, N-cyclopropyl-N-[4-(4-cyclopropylamino-quinazolin-6-yl)-thiophen-2-ylmethyl]-acetamide], at mGluR5 receptor, the pIC50 is 6.96. On mGluR5 receptor (human), this molecule showed a pKi of 8.23.

With `O=C(c1ccccc1)N(Cc1cc(-c2ccc3ncnc(NC4CC4)c3c2)ccc1F)C1CC1` [Example 269, N-cyclopropyl-N-(5-(4-(cyclopropylamino)quinazolin-6-yl)-2-fluorobenzyl)benzamide], the pIC50 on mGluR5 receptor is 6.55. Also, the pKi on mGluR5 receptor (human) was 8.10.

Regarding `CS(=O)(=O)N(Cc1cccc(-c2ccc3ncnc(NC4CC4)c3c2)c1)C1CC1` [Example 270, N-cyclopropyl-N-(3-(4-(cyclopropylamino)quinazolin-6-yl)benzyl)methane sulfonamide], the pIC50 at mGluR5 receptor was 6.55. In addition, at mGluR5 receptor (human), the pKi was 7.92.

With `CC(=O)N(Cc1cccc(-c2ccc3ncnc(NC4CC4)c3c2)c1)C1CC1` [Example 271, N-cyclopropyl-N-(3-(4-(cyclopropylamino)quinazolin-6-yl)benzyl)acetamide], the pIC50 on mGluR5 receptor is 6.85. On mGluR5 receptor (human), this molecule gave a pKi of 8.09.

`O=C(N(Cc1cccc(-c2ccc3ncnc(NC4CC4)c3c2)c1)C1CC1)C(F)(F)F` [Example 273, N-cyclopropyl-N-(3-(4-(cyclopropylamino)quinazolin-6-yl)benzyl)-2,2,2-trifluoroacetamide]: the pIC50 on mGluR5 receptor is 7.52. Besides, the pKi at mGluR5 receptor (human) was 8.77.

Regarding `O=C1CCC(=O)N1Cc1cc(F)cc(-c2ccc3ncnc(NC4CC4)c3c2)c1` [Example 889, 1-(3-(4-(cyclopropylamino)quinazolin-6-yl)-5-fluorobenzyl)pyrrolidine-2,5-dione], the pIC50 at mGluR5 receptor was 6.30.

Turning to `CC(=O)N(Cc1cccc(-c2ccc3ncnc(NC4CC4)c3c2)n1)C1CC1` [Example 890, N-cyclopropyl-N-((6-(4-(cyclopropylamino)quinazolin-6-yl)pyridin-2-yl)methyl)acetamide], the pIC50 on mGluR5 receptor was 5.34.

As for `CN(Cc1cccc(-c2ccc3ncnc(NC4CC4)c3c2)c1)C1CC1` [Example 891, N-cyclopropyl-6-(3-((cyclopropyl(methyl)amino)methyl)phenyl)quinazoline-4-amine], the pIC50 on mGluR5 receptor is 5.25.

For the molecule `c1cc(CN(c2nccs2)C2CC2)cc(-c2ccc3ncnc(NC4CC4)c3c2)c1` [Example 892, N-cyclopropyl-N-(3-(4-(cyclopropylamino)quinazolin-6-yl)benzyl)thiazole-2-amine], on mGluR5 receptor, the pIC50 is 7.10.

On to `CC(=O)N(Cc1cccc(-c2ccc3ncnc(NC4CC4)c3c2)c1)C1CCC1` [Example 893, N-cyclobutyl-N-(3-(4-(cyclopropylamino)quinazolin-6-yl)benzyl)acetamide], for which the pIC50 on mGluR5 receptor was 5.49.

As for `CCN(Cc1cccc(-c2ccc3ncnc(NC4CC4)c3c2)c1)C(C)=O` [Example 894, N-(3-(4-(cyclopropylamino)quinazolin-6-yl)benzyl)-N-ethylacetamide], on mGluR5 receptor, the pIC50 is 6.00.

Regarding `O=C1CCC(=O)N1Cc1ccc(F)c(-c2ccc3ncnc(NC4CC4)c3c2)c1` [Example 895, 1-(3-(4-(cyclopropylamino)quinazolin-6-yl)-4-fluorobenzyl)pyrrolidine-2,5-dione], on mGluR5 receptor, the inhibition at 10 µM is 72%.

In the case of `CC(=O)N(Cc1ccc(F)c(-c2ccc3ncnc(NC4CC4)c3c2)c1)C1CC1` [Example 896, N-cyclopropyl-N-(3-(4-(cyclopropylamino)quinazolin-6-yl)-4-fluorobenzyl)acetamide], the inhibition at 10 µM on mGluR5 receptor is 78%.

With `CC(=O)N(Cc1cc(F)cc(-c2ccc3ncnc(NC4CC4)c3c2)c1)C1CC1` [Example 897, N-cyclopropyl-N-(3-(4-(cyclopropylamino)quinazolin-6-yl)-5-fluorobenzyl)acetamide], at mGluR5 receptor, the pIC50 was 7.70.

On to `COC(=O)N(Cc1cccc(-c2ccc3ncnc(NC4CC4)c3c2)c1)C1CC1` [Example 898, methyl cyclopropyl(3-(4-(cyclopropylamino)quinazolin-6-yl)benzyl)carbamate], for which, at mGluR5 receptor, the pIC50 was 7.05.

On to `COc1cc2ncnc(NC3CC3)c2cc1-c1cccc(CN2C(=O)CCC2=O)c1` [Example 899, 1-(3-(4-(cyclopropylamino)-7-methoxyquinazolin-6-yl)benzyl)pyrrolidine-2,5-dione], for which the pIC50 on mGluR5 receptor is 6.80.

As to `N#CCC(=O)N(Cc1ccc(F)c(-c2ccc3ncnc(NC4CC4)c3c2)c1)C1CC1` [Example 900, 2-cyano-N-cyclopropyl-N-(3-(4-(cyclopropylamino)quinazolin-6-yl)-4-fluorobenzyl)acetamide], the inhibition at 10 µM at mGluR5 receptor was 81%.

Turning to `CN(c1ncnc2ccc(-c3cccc(CN4C(=O)CCC4=O)c3)cc12)C1CC1` [Example 901, 1-(3-(4-(cyclopropyl(methyl)amino)quinazolin-6-yl)benzyl)pyrrolidine-2,5-dione], the inhibition at 10 µM on mGluR5 receptor came to 40%.

In the case of `N#CCC(=O)N(Cc1cc(F)cc(-c2ccc3ncnc(NC4CC4)c3c2)c1)C1CC1` [Example 902, 2-cyano-N-cyclopropyl-N-(3-(4-(cyclopropylamino)quinazolin-6-yl)-5-fluorobenzyl)acetamide], the inhibition at 10 µM on mGluR5 receptor amounted to 92%.

On to `CC(=O)N(Cc1nc(-c2ccc3ncnc(NC4CC4)c3c2)cs1)C1CC1` [Example 903, N-cyclopropyl-N-((4-(4-(cyclopropylamino)quinazolin-6-yl)thiazole-2-yl)methyl)acetamide], for which, on mGluR5 receptor, the inhibition at 10 µM worked out at 87%.

Consider `O=C1CCC(=O)N1Cc1cccc(-c2ccc3ncnc(NC4CC4)c3c2F)c1` [Example 904, 1-(3-(4-(cyclopropylamino)-5-fluoroquinazolin-6-yl)benzyl)pyrrolidine-2,5-dione], for which the pIC50 at mGluR5 receptor was 6.66.
